{"source": "patent US5502035A", "about": "“N-terminus modified analogs of LHRH” (Tap Holdings Inc., priority 1994, dated 1996)", "note": "Non-standard residues stand in square brackets, D forms with d. Residues, ends and D or L forms follow the SMILES beside them. Groups on a side chain read outwards from the residue. *: point of attachment. dAla(benzothien-2-yl) = N[C@H](Cc1cc2ccccc2s1)C(=O)O; Shikimoyl = O=C(C1=C[C@@H](O)[C@@H](O)[C@H](O)C1)*; dPhe(4-Cl) = N[C@H](Cc1ccc(Cl)cc1)C(=O)O; d1Nal = N[C@H](Cc1cccc2ccccc12)C(=O)O; d2Nal = N[C@H](Cc1ccc2ccccc2c1)C(=O)O; Lys(iPr) = CC(C)NCCCC[C@H](N)C(=O)O; NMeY = CN[C@@H](Cc1ccc(O)cc1)C(=O)O; d3Pal = N[C@H](Cc1cccnc1)C(=O)O; Isonicotinoyl = O=C(c1ccncc1)*; Salicyloyl = O=C(c1ccccc1O)*; Nicotinoyl = O=C(c1cccnc1)*; 2Furoyl = O=C(c1ccco1)*; azaGly = NNC(=O)O; βAla = NCCC(=O)O; Sar = CNCC(=O)O"}
{"molecular_target": "T1, LHRH (Rattus norvegicus, UniProt P30969)", "T1 construct": "endogenous in cells; host or cells: rat pituitary cells (own knowledge of the cited Haviv 1989 method)", "T1 sequence (P30969 1-327)": "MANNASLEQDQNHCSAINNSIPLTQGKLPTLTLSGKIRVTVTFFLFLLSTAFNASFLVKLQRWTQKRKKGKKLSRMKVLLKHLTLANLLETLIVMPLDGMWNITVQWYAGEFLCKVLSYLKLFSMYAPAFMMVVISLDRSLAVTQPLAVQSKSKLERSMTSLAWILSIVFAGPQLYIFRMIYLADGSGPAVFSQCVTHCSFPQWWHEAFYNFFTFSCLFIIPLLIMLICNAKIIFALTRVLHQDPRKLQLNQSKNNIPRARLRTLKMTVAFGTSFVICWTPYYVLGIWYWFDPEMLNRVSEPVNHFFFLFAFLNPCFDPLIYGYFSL", "assay": "in vitro test for LHRH antagonist potency (pA2)", "format": "cell-based", "details": "negative logarithm of the antagonist concentration required to shift the response curve produced by the agonist leuprolide to two-fold higher concentration", "in_short": "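Rat LHRH receptor in vitro functional test; pA2 = negative log of the antagonist concentration shifting the leuprolide agonist response curve to two-fold higher concentration.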", "units": {"Kb": "nM"}}
{"smiles": "CC(C)C[C@H](NC(=O)[C@@H](CCCCNC(=O)CNC(=O)c1cccnc1)NC(=O)[C@H](Cc1ccc(O)cc1)N(C)C(=O)[C@H](CO)NC(=O)[C@@H](Cc1cccnc1)NC(=O)[C@@H](Cc1ccc(Cl)cc1)NC(=O)[C@@H](Cc1ccc2ccccc2c1)NC(=O)C1=C[C@@H](O)[C@@H](O)[C@H](O)C1)C(=O)N[C@@H](CCCCNC(C)C)C(=O)N1CCC[C@H]1C(=O)N[C@H](C)C(N)=O", "note": "[Example 29, N-Shikimyl-D2Nal-D4ClPhe-D3Pal-Ser-NMeTyr-DLys(GlyNic)-Leu-Lys(Isp)-Pro-DAlaNH2] (Shikimoyl-[d2Nal][dPhe(4-Cl)][d3Pal]S[NMeY][dK]([Gly-Nicotinoyl])L[Lys(iPr)]P[dA]-NH2)", "Kb": 0.0257}
{"smiles": "CC(C)C[C@H](NC(=O)[C@@H](CCCCNC(=O)NNC(=O)c1cccnc1)NC(=O)[C@H](Cc1ccc(O)cc1)N(C)C(=O)[C@H](CO)NC(=O)[C@@H](Cc1cccnc1)NC(=O)[C@@H](Cc1ccc(Cl)cc1)NC(=O)[C@@H](Cc1ccc2ccccc2c1)NC(=O)C1=C[C@@H](O)[C@@H](O)[C@H](O)C1)C(=O)N[C@@H](CCCCNC(C)C)C(=O)N1CCC[C@H]1C(=O)N[C@H](C)C(N)=O", "note": "[Example 30b, N-Shik-D2Nal-D4ClPhe-D3Pal-Ser-NMeTyr-DLys(Azagly-Nic)-Leu-Lys(Isp)-Pro-DAlaNH2] (Shikimoyl-[d2Nal][dPhe(4-Cl)][d3Pal]S[NMeY][dK]([azaGly-Nicotinoyl])L[Lys(iPr)]P[dA]-NH2)", "Kb": 0.0295}
{"smiles": "CC(C)C[C@H](NC(=O)[C@@H](CCCCNC(=O)NNC(=O)c1ccco1)NC(=O)[C@H](Cc1ccc(O)cc1)N(C)C(=O)[C@H](CO)NC(=O)[C@@H](Cc1cccnc1)NC(=O)[C@@H](Cc1ccc(Cl)cc1)NC(=O)[C@@H](Cc1ccc2ccccc2c1)NC(=O)C1=C[C@@H](O)[C@@H](O)[C@H](O)C1)C(=O)N[C@@H](CCCCNC(C)C)C(=O)N1CCC[C@H]1C(=O)N[C@H](C)C(N)=O", "note": "[Example 30c, N-Shik-D2Nal-D4ClPhe-D3Pal-Ser-NMeTyr-DLys(Azagly-2Fur)-Leu-Lys(Isp)-Pro-DAlaNH2] (Shikimoyl-[d2Nal][dPhe(4-Cl)][d3Pal]S[NMeY][dK]([azaGly-2Furoyl])L[Lys(iPr)]P[dA]-NH2)", "Kb": 0.038}
{"smiles": "CC(C)C[C@H](NC(=O)[C@@H](CCCCNC(=O)NNC(=O)c1cccnc1)NC(=O)[C@H](Cc1ccc(O)cc1)N(C)C(=O)[C@H](CO)NC(=O)[C@@H](Cc1cccnc1)NC(=O)[C@@H](Cc1ccc(Cl)cc1)NC(=O)[C@@H](Cc1ccc2ccccc2c1)NC(=O)NNC(=O)c1cccnc1)C(=O)N[C@@H](CCCCNC(C)C)C(=O)N1CCC[C@H]1C(=O)N[C@H](C)C(N)=O", "note": "[Example 31, N-Nicotinyl-Azagly-D2Nal-D4ClPhe-D3Pal-Ser-NMeTyr-DLys(Azagly-Nic)-Leu-Lys(Isp)-Pro-DAlaNH2] (Nicotinoyl-[azaGly][d2Nal][dPhe(4-Cl)][d3Pal]S[NMeY][dK]([azaGly-Nicotinoyl])L[Lys(iPr)]P[dA]-NH2)", "Kb": 0.0195}
{"smiles": "CC(C)C[C@H](NC(=O)[C@@H](CCCCNC(=O)c1cccnc1)NC(=O)[C@H](Cc1ccc(O)cc1)N(C)C(=O)[C@H](CO)NC(=O)[C@@H](Cc1cc2ccccc2s1)NC(=O)[C@@H](Cc1ccc(Cl)cc1)NC(=O)NNC(=O)c1cccnc1)C(=O)N[C@@H](CCCCNC(C)C)C(=O)N1CCC[C@H]1C(=O)N[C@H](C)C(N)=O", "note": "[Example 32, N-Nicotinyl-Azagly-D4ClPhe-DBal-Ser-NMeTyr-DLys(Nic)-Leu-Lys(Isp)-Pro-DAlaNH2] (Nicotinoyl-[azaGly][dPhe(4-Cl)][dAla(benzothien-2-yl)]S[NMeY][dK](Nicotinoyl)L[Lys(iPr)]P[dA]-NH2)", "Kb": 0.0141}
{"smiles": "CC(C)C[C@H](NC(=O)[C@@H](CCCCNC(=O)c1cccnc1)NC(=O)[C@H](Cc1ccc(O)cc1)N(C)C(=O)[C@H](CO)NC(=O)[C@@H](Cc1cc2ccccc2s1)NC(=O)[C@@H](Cc1ccc(Cl)cc1)NC(=O)NNC(=O)c1ccco1)C(=O)N[C@@H](CCCCNC(C)C)C(=O)N1CCC[C@H]1C(=O)N[C@H](C)C(N)=O", "note": "[Example 33a, N-(2-Furoyl)-Azagly-D4ClPhe-DBal-Ser-NMeTyr-DLys(Nic)-Leu-Lys(Isp)-Pro-DAlaNH2] (2Furoyl-[azaGly][dPhe(4-Cl)][dAla(benzothien-2-yl)]S[NMeY][dK](Nicotinoyl)L[Lys(iPr)]P[dA]-NH2)", "Kb": 0.00631}
{"smiles": "CC(C)C[C@H](NC(=O)[C@@H](CCCCNC(=O)c1cccnc1)NC(=O)[C@H](Cc1ccc(O)cc1)N(C)C(=O)[C@H](CO)NC(=O)[C@@H](Cc1cc2ccccc2s1)NC(=O)[C@@H](Cc1ccc(Cl)cc1)NC(=O)NNC(=O)c1ccncc1)C(=O)N[C@@H](CCCCNC(C)C)C(=O)N1CCC[C@H]1C(=O)N[C@H](C)C(N)=O", "note": "[Example 33b, N-Isonicotinyl-Azagly-D4ClPhe-DBal-Ser-NMeTyr-DLys(Nic)-Leu-Lys(Isp)-Pro-DAlaNH2] (Isonicotinoyl-[azaGly][dPhe(4-Cl)][dAla(benzothien-2-yl)]S[NMeY][dK](Nicotinoyl)L[Lys(iPr)]P[dA]-NH2)", "Kb": 0.02}
{"smiles": "CC(C)C[C@H](NC(=O)[C@@H](CCCCNC(=O)c1cccnc1)NC(=O)[C@H](Cc1ccc(O)cc1)N(C)C(=O)[C@H](CO)NC(=O)[C@@H](Cc1cccc2ccccc12)NC(=O)[C@@H](Cc1ccc(Cl)cc1)NC(=O)NNC(=O)c1cccnc1)C(=O)N[C@@H](CCCCNC(C)C)C(=O)N1CCC[C@H]1C(=O)N[C@H](C)C(N)=O", "note": "[Example 33c, N-Nicotinyl-Azagly-D4ClPhe-D1Nal-Ser-NMeTyr-DLys(Nic)-Leu-Lys(Isp)-Pro-DAlaNH2] (Nicotinoyl-[azaGly][dPhe(4-Cl)][d1Nal]S[NMeY][dK](Nicotinoyl)L[Lys(iPr)]P[dA]-NH2)", "Kb": 0.00501}
{"smiles": "CC(C)C[C@H](NC(=O)[C@@H](CCCCNC(=O)c1cccnc1)NC(=O)[C@H](Cc1ccc(O)cc1)N(C)C(=O)[C@H](CO)NC(=O)[C@@H](Cc1cccc2ccccc12)NC(=O)[C@@H](Cc1ccc(Cl)cc1)NC(=O)CN(C)C(=O)CNC(=O)c1cccnc1)C(=O)N[C@@H](CCCCNC(C)C)C(=O)N1CCC[C@H]1C(=O)N[C@H](C)C(N)=O", "note": "[Example 35a, Nic-Gly-Sar-D4ClPhe-D1Nal-Ser-NMeTyr-DLys(Nic)-Leu-Lys(Isp)-Pro-DAlaNH2] (Nicotinoyl-G[Sar][dPhe(4-Cl)][d1Nal]S[NMeY][dK](Nicotinoyl)L[Lys(iPr)]P[dA]-NH2)", "Kb": 0.1}
{"smiles": "CC(C)C[C@H](NC(=O)[C@@H](CCCCNC(=O)c1cccnc1)NC(=O)[C@H](Cc1ccc(O)cc1)N(C)C(=O)[C@H](CO)NC(=O)[C@@H](Cc1cc2ccccc2s1)NC(=O)[C@@H](Cc1ccc(Cl)cc1)NC(=O)CN(C)C(=O)CNC(=O)c1cccnc1)C(=O)N[C@@H](CCCCNC(C)C)C(=O)N1CCC[C@H]1C(=O)N[C@H](C)C(N)=O", "note": "[Example 35b, Nic-Gly-Sar-D4ClPhe-DBal-Ser-NMeTyr-DLys(Nic)-Leu-Lys(Isp)-Pro-DAlaNH2] (Nicotinoyl-G[Sar][dPhe(4-Cl)][dAla(benzothien-2-yl)]S[NMeY][dK](Nicotinoyl)L[Lys(iPr)]P[dA]-NH2)", "Kb": 0.0794}
{"smiles": "CC(C)C[C@H](NC(=O)[C@@H](CCCCNC(=O)c1cccnc1)NC(=O)[C@H](Cc1ccc(O)cc1)N(C)C(=O)[C@H](CO)NC(=O)[C@@H](Cc1cc2ccccc2s1)NC(=O)[C@@H](Cc1ccc(Cl)cc1)NC(=O)[C@@H](Cc1ccc2ccccc2c1)NC(=O)CCNC(=O)c1cccnc1)C(=O)N[C@@H](CCCCNC(C)C)C(=O)N1CCC[C@H]1C(=O)N[C@H](C)C(N)=O", "note": "[Example 36, N-Nicotinyl-3-Aminopropionyl-D2Nal-D4ClPhe-DBal-Ser-NMeTyr-DLys(N-epsilon-Nicotinyl) -Leu-Lys(N-epsilon-Isopropyl)-Pro-DAlaNH2] ({Nicotinoyl-βAla}-[d2Nal][dPhe(4-Cl)][dAla(benzothien-2-yl)]S[NMeY][dK](Nicotinoyl)L[Lys(iPr)]P[dA]-NH2)", "Kb": 0.0224}
{"smiles": "CC(C)C[C@H](NC(=O)[C@@H](CCCCNC(=O)c1cccnc1)NC(=O)[C@H](Cc1ccc(O)cc1)N(C)C(=O)[C@H](CO)NC(=O)[C@@H](Cc1cccnc1)NC(=O)[C@@H](Cc1ccc(Cl)cc1)NC(=O)[C@@H](Cc1ccc2ccccc2c1)NC(=O)NNC(=O)c1ccco1)C(=O)N[C@@H](CCCCNC(C)C)C(=O)N1CCC[C@H]1C(=O)N[C@H](C)C(N)=O", "note": "[Example 37a, N-(2-Furoyl)-Azagly-D2Nal-D4ClPhe-D3Pal-Ser-NMeTyr-DLys(Nic)-Leu-Lys(Isp)- Pro-DAlaNH2] (2Furoyl-[azaGly][d2Nal][dPhe(4-Cl)][d3Pal]S[NMeY][dK](Nicotinoyl)L[Lys(iPr)]P[dA]-NH2)", "Kb": 0.00631}
{"smiles": "CC(C)C[C@H](NC(=O)[C@@H](CCCCNC(=O)c1cccnc1)NC(=O)[C@H](Cc1ccc(O)cc1)N(C)C(=O)[C@H](CO)NC(=O)[C@@H](Cc1cccnc1)NC(=O)[C@@H](Cc1ccc(Cl)cc1)NC(=O)[C@@H](Cc1ccc2ccccc2c1)NC(=O)NNC(=O)c1cccnc1)C(=O)N[C@@H](CCCCNC(C)C)C(=O)N1CCC[C@H]1C(=O)N[C@H](C)C(N)=O", "note": "[Example 37b, N-Nicotinyl-Azagly-D2Nal-D4ClPhe-D3Pal-Ser-NMeTyr-DLys(Nic)-Leu-Lys(Isp)-Pro-DAlaNH2] (Nicotinoyl-[azaGly][d2Nal][dPhe(4-Cl)][d3Pal]S[NMeY][dK](Nicotinoyl)L[Lys(iPr)]P[dA]-NH2)", "Kb": 0.0158}
{"smiles": "CC(C)C[C@H](NC(=O)[C@@H](CCCCNC(=O)c1cccnc1)NC(=O)[C@H](Cc1ccc(O)cc1)N(C)C(=O)[C@H](CO)NC(=O)[C@@H](Cc1cccnc1)NC(=O)[C@@H](Cc1ccc(Cl)cc1)NC(=O)[C@@H](Cc1ccc2ccccc2c1)NC(=O)NNC(=O)c1ccccc1O)C(=O)N[C@@H](CCCCNC(C)C)C(=O)N1CCC[C@H]1C(=O)N[C@H](C)C(N)=O", "note": "[Example 37c, N-Salicyl-Azagly-D2Nal-D4ClPhe-D3Pal-Ser-NMeTyr-DLys(Nic)-Leu-Lys(Isp)-Pro-DAlaNH2] (Salicyloyl-[azaGly][d2Nal][dPhe(4-Cl)][d3Pal]S[NMeY][dK](Nicotinoyl)L[Lys(iPr)]P[dA]-NH2)", "Kb": 0.0251}
